Measured values published in ChEMBL document CHEMBL4483862, “Open-source discovery of chemical leads for next-generation chemoprotective antimalarials” (2018).

Test system: Plasmodium berghei
Assay: Luciferase/luciferin-expressing antifolate-resistant parasites were used to infect a culture of HepG2 cells that were pre-incubated with compounds. Infected hepatocytes emit light due to the luciferase reaction. Assay results are presented as the percent inhibition of light emission compared to control. […]
Format: functional
Conditions: sporozoite; for IC90: read-out: LUCIFERASE INFECTION ASSAY - IC90

SMILES	IC90 [µM]	further results
N#Cc1c(N2CCCC(O)C2)nc(N)c2c(N)nc3c(c12)CC(=O)N3C12CC3CC(CC(C3)C1)C2 (centres undefined)	> 10	IC50 (HEPG2TOX_HILL_SLOPE 8.91, HEPG2TOX_R_SQUARED 0.422, PBLUC_HILL_SLOPE 4.43, PBLUC_R_SQUARED 0.134, read-out: LUCIFERASE INFECTION ASSAY - IC50): 6.8 µM
N#Cc1c(N)nc(Sc2ccc(Cl)cc2)c(C#N)c1-c1ccccc1Cl	> 8.31	IC50 (HEPG2TOX_HILL_SLOPE 9.05, HEPG2TOX_R_SQUARED 0.0303, PBLUC_HILL_SLOPE 3.41, PBLUC_R_SQUARED 0.0674, read-out: LUCIFERASE INFECTION ASSAY - IC50): 7.69 µM
CCOC(=O)c1sc(S(C)(=O)=O)c2c1CC(C)(C)CC2=O	> 9.99	IC50 (HEPG2TOX_HILL_SLOPE 8.99, HEPG2TOX_R_SQUARED 0.709, PBLUC_HILL_SLOPE 5.08, PBLUC_R_SQUARED 0.0136, read-out: LUCIFERASE INFECTION ASSAY - IC50): > 9.99 µM
CN(C)CCNc1cc(-c2cccs2)nc2ccccc12	4.22	IC50 (HEPG2TOX_HILL_SLOPE 9.05, HEPG2TOX_R_SQUARED 0.795, PBLUC_HILL_SLOPE 12.9, PBLUC_R_SQUARED 0.598, read-out: LUCIFERASE INFECTION ASSAY - IC50): 3.56 µM
CCNC(=O)COc1ccc(/C=C/C(=O)c2ccc(N3CCCCC3)cc2)cc1OC	> 10	IC50 (HEPG2TOX_HILL_SLOPE 9.05, HEPG2TOX_R_SQUARED 0.908, PBLUC_HILL_SLOPE 2.57, PBLUC_R_SQUARED 0.344, read-out: LUCIFERASE INFECTION ASSAY - IC50): 5.12 µM
CC(C)c1ccc(C(=O)N2CCC(CCCC3CCN(C(=O)c4ccc(C(C)C)cc4)CC3)CC2)cc1	> 10	IC50 (HEPG2TOX_HILL_SLOPE 8.83, HEPG2TOX_R_SQUARED 0.537, read-out: LUCIFERASE INFECTION ASSAY - IC50): > 10 µM
CN1C/C(=C/c2csnn2)C(=O)/C(=C/c2csnn2)C1	4.3	IC50 (HEPG2TOX_HILL_SLOPE 8.98, HEPG2TOX_R_SQUARED 0.932, PBLUC_HILL_SLOPE 14.4, PBLUC_R_SQUARED 0.582, read-out: LUCIFERASE INFECTION ASSAY - IC50): 3.69 µM
Cc1ccc(-c2nc3c(s2)CN(C(=O)c2ccc4c(c2)OCO4)CC3)cc1	> 8.72	IC50 (HEPG2TOX_HILL_SLOPE 8.84, HEPG2TOX_R_SQUARED 0.538, PBLUC_HILL_SLOPE 2.18, PBLUC_R_SQUARED 0.0909, read-out: LUCIFERASE INFECTION ASSAY - IC50): 7.14 µM
O=C1/C(=C/c2ccc(F)cc2)COC/C1=C\c1ccc(F)cc1	> 10.6	IC50 (HEPG2TOX_HILL_SLOPE 8.86, HEPG2TOX_R_SQUARED 0.951, read-out: LUCIFERASE INFECTION ASSAY - IC50): > 10.6 µM
CCc1ccc(NC(=O)Cc2nc(-c3ccc4c(c3)CCCN4S(C)(=O)=O)cs2)cc1	> 10	IC50 (HEPG2TOX_HILL_SLOPE 9.08, HEPG2TOX_R_SQUARED 0.0527, PBLUC_HILL_SLOPE 1.74, PBLUC_R_SQUARED 0.25, read-out: LUCIFERASE INFECTION ASSAY - IC50): 5.76 µM
Cc1ccccc1-c1noc(-c2cc(-c3cccs3)[nH]n2)n1	> 10	IC50 (HEPG2TOX_HILL_SLOPE 8.85, HEPG2TOX_R_SQUARED 0.0358, read-out: LUCIFERASE INFECTION ASSAY - IC50): > 10 µM
O=C(/C=C/c1ccncc1)Nc1ccc(Oc2ccccc2)cc1	6.66	IC50 (HEPG2TOX_HILL_SLOPE 9.03, HEPG2TOX_R_SQUARED 0.239, PBLUC_HILL_SLOPE 3.67, PBLUC_R_SQUARED 0.501, read-out: LUCIFERASE INFECTION ASSAY - IC50): 3.66 µM
C/C(=N\Nc1ccnc2cc(Cl)ccc12)c1ccc(-n2ccnc2)cc1	> 10	IC50 (HEPG2TOX_HILL_SLOPE 8.87, HEPG2TOX_R_SQUARED 0.252, read-out: LUCIFERASE INFECTION ASSAY - IC50): > 10 µM
COc1ccc(-c2cnn3c(N)c(-c4cccc(Cl)c4)cnc23)cc1OC	> 8.67	IC50 (HEPG2TOX_HILL_SLOPE 8.92, HEPG2TOX_R_SQUARED 0.943, PBLUC_HILL_SLOPE 1.73, PBLUC_R_SQUARED 0.738, read-out: LUCIFERASE INFECTION ASSAY - IC50): 2.75 µM
Cc1cccc(C(=O)Nc2nc3ccccn3c2C(=O)NC2CCCC2)c1	4.69	IC50 (HEPG2TOX_HILL_SLOPE 8.83, HEPG2TOX_R_SQUARED 0.45, PBLUC_HILL_SLOPE 2.41, PBLUC_R_SQUARED 0.415, read-out: LUCIFERASE INFECTION ASSAY - IC50): 1.88 µM
CC(C)Oc1cccc(Nc2nccc3[nH]c(-c4ccccc4)cc23)c1	7.93	IC50 (HEPG2TOX_HILL_SLOPE 8.91, HEPG2TOX_R_SQUARED 0.686, PBLUC_HILL_SLOPE 1.92, PBLUC_R_SQUARED 0.493, read-out: LUCIFERASE INFECTION ASSAY - IC50): 2.53 µM

SMILES	IC90 [µM]	further results
Cc1ccc(CN2CCC3(CC2)C(=O)N(C(C)C)C(=O)N3CCc2ccccc2)o1	> 8.06	IC50 (HEPG2TOX_HILL_SLOPE 8.85, HEPG2TOX_R_SQUARED 0.516, read-out: LUCIFERASE INFECTION ASSAY - IC50): > 8.06 µM
COc1ccc(-c2nonc2NC(=O)c2sc3cc(C)ccc3c2Cl)cc1	6.5	IC50 (HEPG2TOX_HILL_SLOPE 8.9, HEPG2TOX_R_SQUARED 0.644, PBLUC_HILL_SLOPE 6.34, PBLUC_R_SQUARED 0.0844, read-out: LUCIFERASE INFECTION ASSAY - IC50): 4.6 µM
CC1(C(=O)N2CCN(c3ccc(C(F)(F)F)cn3)CC2)Cc2ccccc2C(=O)O1 (centres undefined)	> 10	IC50 (HEPG2TOX_HILL_SLOPE 9.02, HEPG2TOX_R_SQUARED 0.896, PBLUC_HILL_SLOPE 11.4, 1.60, PBLUC_R_SQUARED 0.0115, 0.213, read-out: LUCIFERASE INFECTION ASSAY - IC50): 7.88 µM
Cc1cc(=O)[nH]n(-c2ccccc2)c1=O	8.7	IC50 (HEPG2TOX_HILL_SLOPE 8.84, HEPG2TOX_R_SQUARED 0.75, PBLUC_HILL_SLOPE 7.32, PBLUC_R_SQUARED 0.521, read-out: LUCIFERASE INFECTION ASSAY - IC50): 6.44 µM
Oc1c(Cl)cc(Cl)cc1/C=N/NC(=S)NC1CCCCC1	9.37	IC50 (HEPG2TOX_HILL_SLOPE 8.84, HEPG2TOX_R_SQUARED 0.571, PBLUC_HILL_SLOPE 15.3, PBLUC_R_SQUARED 0.312, read-out: LUCIFERASE INFECTION ASSAY - IC50): 8.11 µM
CC(C)(C)NC(=S)N/N=C/c1cc([N+](=O)[O-])ccc1O	11.1	IC50 (HEPG2TOX_HILL_SLOPE 9.08, HEPG2TOX_R_SQUARED 0.437, PBLUC_HILL_SLOPE 15.5, PBLUC_R_SQUARED 0.332, read-out: LUCIFERASE INFECTION ASSAY - IC50): 9.61 µM
CCc1cc[n+](CC(=O)Nc2cc3oc4ccccc4c3cc2OC)cc1	9.36	IC50 (HEPG2TOX_HILL_SLOPE 8.94, HEPG2TOX_R_SQUARED 0.562, PBLUC_HILL_SLOPE 18.1, PBLUC_R_SQUARED 0.422, read-out: LUCIFERASE INFECTION ASSAY - IC50): 8.29 µM
COc1ccc(Nc2nccc3[nH]c(-c4ccsc4)cc23)cc1OC	7.38	IC50 (HEPG2TOX_HILL_SLOPE 8.96, HEPG2TOX_R_SQUARED 0.789, PBLUC_HILL_SLOPE 2.87, PBLUC_R_SQUARED 0.796, read-out: LUCIFERASE INFECTION ASSAY - IC50): 3.43 µM
c1ccc2c(-n3ccnc3)nc(-c3ccsc3)nc2c1	7.73	IC50 (HEPG2TOX_HILL_SLOPE 9, HEPG2TOX_R_SQUARED 0.711, PBLUC_HILL_SLOPE 3.68, 14.1, PBLUC_R_SQUARED 0.615, 0.129, read-out: LUCIFERASE INFECTION ASSAY - IC50): 4.26 µM
CCOC(=O)c1cc(C#N)c(Sc2nnc(SCC3CC3)s2)nc1C(F)(F)F	> 7.39	IC50 (HEPG2TOX_HILL_SLOPE 8.92, HEPG2TOX_R_SQUARED 0.488, read-out: LUCIFERASE INFECTION ASSAY - IC50): > 7.39 µM
COc1ccc(CN2C(=O)N(C)C3(CCN(Cc4ccc(N5CCCC5)cc4)CC3)C2=O)cc1	> 7.13	IC50 (HEPG2TOX_HILL_SLOPE 9.02, HEPG2TOX_R_SQUARED 0.802, PBLUC_HILL_SLOPE 4.22, PBLUC_R_SQUARED 0.106, read-out: LUCIFERASE INFECTION ASSAY - IC50): 5.16 µM
O=C(CSc1ncnc2sc(-c3ccccc3)cc12)NCc1ccc(F)cc1	> 10	IC50 (HEPG2TOX_HILL_SLOPE 9.03, HEPG2TOX_R_SQUARED 0.325, PBLUC_HILL_SLOPE 19.9, PBLUC_R_SQUARED 0.0271, read-out: LUCIFERASE INFECTION ASSAY - IC50): 9.7 µM
CC(C)(C)c1nc2ccc(NC(=O)c3ccc(Cl)c(S(=O)(=O)NC4CC4)c3)cc2[nH]1	> 10	IC50 (HEPG2TOX_HILL_SLOPE 8.98, HEPG2TOX_R_SQUARED 0.824, PBLUC_HILL_SLOPE 3.11, PBLUC_R_SQUARED 0.121, read-out: LUCIFERASE INFECTION ASSAY - IC50): 7.36 µM
CC(=O)Nc1ccc(-c2cnc3ccc(-c4cccc(F)c4)nn23)cc1	3.53	IC50 (HEPG2TOX_HILL_SLOPE 8.87, HEPG2TOX_R_SQUARED 0.791, PBLUC_HILL_SLOPE 12.1, PBLUC_R_SQUARED 0.742, read-out: LUCIFERASE INFECTION ASSAY - IC50): 2.95 µM
Cc1ccc(N2C(=O)C=CC2=O)c(C)c1	6.84	IC50 (HEPG2TOX_HILL_SLOPE 8.83, HEPG2TOX_R_SQUARED 0.656, PBLUC_HILL_SLOPE 7.12, PBLUC_R_SQUARED 0.655, read-out: LUCIFERASE INFECTION ASSAY - IC50): 5.02 µM
Clc1ccc(CN2CCN(c3ncnc4sccc34)CC2)s1	> 10	IC50 (HEPG2TOX_HILL_SLOPE 8.99, HEPG2TOX_R_SQUARED 0.725, PBLUC_HILL_SLOPE 4.78, PBLUC_R_SQUARED 0.254, read-out: LUCIFERASE INFECTION ASSAY - IC50): 8.3 µM
